Results reported in article PMC4807281 (The Journal of Biological Chemistry, 2016).

Legend:
Hsp72 = system: Hsp72; parameters: method as in PMID 15540944; settings: modification at Cys-267; ref [62]; cited from earlier work
[1] = system: heat-induced luciferase aggregation; parameters: method as in PMID 15109915; settings: ref [68]; cited from earlier work
DnaK [2] = molecular target: T1, DnaK (Escherichia coli, UniProt P0A6Y8); experiment: Peptide binding assay (fluorescence polarization), control/deglutathionylated DnaK; parameters: species or system E. coli; settings: ADP state; FP
T1 construct: His6-Smt3 (N, cleaved yes); made in house; host or cells: E. coli BL21(DE3)
Procedure: FP values are expressed in millipolarization units. All statistical analyses were performed with Origin 8 software.
FIGURE 6.

DnaK [3] = molecular target: T1, DnaK; parameters: species or system E. coli; settings: 0.5 mM ATP or ADP premixed 30 min with DnaK T199A; GSH and diamide
Procedure: To deglutathionylate the protein, 10 mM DTT was added to the reaction mixture. GSH, diamide, and/or DTT was removed by dialysis.
(§1) Cooled protein was mixed with the dye and incubated in the dark at room temperature for at least 30 min. SDS-PAGE was performed to separate protein and surplus dye. Fluorescence of Alexa Fluor 350 dye was observed using excitation at 254 nm with a UV lamp.
(§2) FIGURE 3. […] Unmodified cysteine residues for untreated control, glutathionylated, and deglutathionylated samples were labeled with fluorescent dye.

DnaK [4] = molecular target: T1, DnaK; parameters: species or system E. coli; settings: 1 mM ADP/ATP/NRLLLTG peptide, 1 h room temperature before DTNB; mean of three
Procedure: A standard curve was obtained using 0–100 μM free cysteine. […] The number of active cysteine residues can be calculated by dividing the concentration of free thiols in the protein by the concentration of protein.
FIGURE 1. […] The N-terminal NBD and its subdomains IA, IB, IIA, and IIB and the C-terminal SBD are indicated. […] The number of free thiols was calculated from the absorbance at 412 nm using a standard curve.

Ssa1 = system: Ssa1; parameters: method as in PMID 8939938, PMID 9753476, PMID 10462452; settings: absence of nucleotide; ref [56], [60], [61]; cited from earlier work
glutathionylated DnaK = molecular target: T2, glutathionylated DnaK (Escherichia coli, UniProt P0A6Y8); experiment: Deglutathionylation of glutathionylated DnaK by Grx3/GSH; parameters: species or system E. coli; settings: 10 μM glutathionylated DnaK, 30 min, 37 °C, […] Grx3 with 20 μM GSH
T2 construct: His6-Smt3 (N, cleaved yes); made in house; host or cells: E. coli BL21(DE3)
Procedure: […] GSH, diamide, and/or DTT was removed by dialysis.
as §1, §2

T1 sequence (P0A6Y8 2-638): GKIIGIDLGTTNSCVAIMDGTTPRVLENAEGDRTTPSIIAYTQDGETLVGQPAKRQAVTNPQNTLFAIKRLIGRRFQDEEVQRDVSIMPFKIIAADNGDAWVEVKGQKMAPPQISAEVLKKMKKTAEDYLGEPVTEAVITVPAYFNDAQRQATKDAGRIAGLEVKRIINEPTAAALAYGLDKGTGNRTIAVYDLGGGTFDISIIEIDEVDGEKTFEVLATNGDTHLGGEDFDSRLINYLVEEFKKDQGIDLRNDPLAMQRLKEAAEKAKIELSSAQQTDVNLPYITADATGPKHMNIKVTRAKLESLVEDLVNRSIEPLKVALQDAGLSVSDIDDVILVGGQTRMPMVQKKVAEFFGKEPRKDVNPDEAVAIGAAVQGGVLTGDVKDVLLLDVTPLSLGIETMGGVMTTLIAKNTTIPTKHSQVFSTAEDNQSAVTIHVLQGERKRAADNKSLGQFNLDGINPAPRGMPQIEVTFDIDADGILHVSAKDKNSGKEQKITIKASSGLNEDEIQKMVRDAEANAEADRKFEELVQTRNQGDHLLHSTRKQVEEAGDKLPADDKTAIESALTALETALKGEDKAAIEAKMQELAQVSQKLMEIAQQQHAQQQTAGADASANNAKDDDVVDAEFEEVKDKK
T2 sequence (P0A6Y8 2-638): as above

Compound: CCCCCC(O)C=CC=O (stereo not drawn) [4-Hydroxy-2-nonenal]
- effect on protein refoldase activity of Hsp72 (Hsp72): inhibits its protein refoldase activity

Compound: Hsc70: Hsp70 family member whose glutathionylation is cited
- effect of glutathionylation of Hsc70 [1]: enhance inhibition of heat-induced luciferase aggregation

Compound: CC(C)C[C@H](NC(=O)[C@H](C)NC(=S)Nc1ccc2c(c1)C(=O)OC21c2ccc(O)cc2Oc2cc(O)ccc21)C(=O)N[C@@H](CC(C)C)C(=O)N[C@@H](CC(C)C)C(=O)N[C@@H](CO)C(=O)N[C@@H](C)C(=O)N1CCC[C@H]1C(=O)N[C@@H](CCCNC(=N)N)C(=O)N[C@@H](CCCNC(=N)N)C(=O)O
- effect of ADP binding to DnaK on binding affinity of peptide (DnaK [2]): did not obviously alter the binding affinity of peptide

Compound: Nc1ncnc2c1ncn2[C@@H]1O[C@H](COP(=O)(O)OP(=O)(O)OP(=O)(O)O)[C@@H](O)[C@H]1O [ATP]
- effect on glutathionylation of DnaK (DnaK [3]): no glutathionylation of DnaK occurred
- effect on cysteine reactivity of DnaK (DnaK [4]): inhibited cysteine reactivity of DnaK to different degrees

Compound: CCN1C(=O)C=CC1=O [N-ethylmaleimide]
- effect of modification on Ssa1 (Ssa1): reduces transmembrane transport as well as the ATPase and luciferase refolding activities of Ssa1

Compound: Nc1ncnc2c1ncn2[C@@H]1O[C@H](COP(=O)(O)OP(=O)(O)O)[C@@H](O)[C@H]1O [ADP]
- effect on glutathionylation of DnaK (DnaK [3]): no glutathionylation of DnaK occurred
- effect on cysteine reactivity of DnaK (DnaK [4]): inhibited cysteine reactivity of DnaK to different degrees

Compound: N[C@@H](CCC(=O)N[C@@H](CS)C(=O)NCC(=O)O)C(=O)O [GSH]
- deglutathionylation of DnaK (glutathionylated DnaK): worked synergistically to cause deglutathionylation of DnaK
